Source: the supplement of paper PMC11451515

Test system: P12-Ichikawa
Assay: cell viability relative to DMSO control; higher = less cytotoxic
Conditions: 48 h
Summary of the method: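 Library compounds in DMSO were pin-dosed into 1536-well plates (5 μl) holding NOMO1 or SEM (500 cells/well) or P12-Ichikawa (1000 cells/well) leukemia cells, across an 11-point threefold series of 47 μM to 0.79 nM. Each cell line had been adapted for at least four passages in each medium. CellTiter-Glo One luminescence was read after 48 h at 37°C. Viability is the per-plate percentage relative to DMSO wells, with cell-free wells as background.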

[1] = HPLM + 10% dialyzed FBS, 0.000781 µM
[2] = HPLM + 10% dialyzed FBS, 0.00234 µM
[3] = HPLM + 10% dialyzed FBS, 0.00702 µM
[4] = HPLM + 10% dialyzed FBS, 0.0211 µM
[5] = HPLM + 10% dialyzed FBS, 0.0632 µM
[6] = HPLM + 10% dialyzed FBS, 0.19 µM
[7] = HPLM + 10% dialyzed FBS, 0.569 µM
[8] = HPLM + 10% dialyzed FBS, 1.71 µM
[9] = HPLM + 10% dialyzed FBS, 5.12 µM
[10] = HPLM + 10% dialyzed FBS, 15.4 µM
[11] = HPLM + 10% dialyzed FBS, 46.1 µM
[12] = RPMI 5 mM glucose + 10% FBS, 0.000781 µM
[13] = RPMI 5 mM glucose + 10% FBS, 0.00234 µM
[14] = RPMI 5 mM glucose + 10% FBS, 0.00702 µM
[15] = RPMI 5 mM glucose + 10% FBS, 0.0211 µM
[16] = RPMI 5 mM glucose + 10% FBS, 0.0632 µM
[17] = RPMI 5 mM glucose + 10% FBS, 0.19 µM
[18] = RPMI 5 mM glucose + 10% FBS, 0.569 µM
[19] = RPMI 5 mM glucose + 10% FBS, 1.71 µM
[20] = RPMI 5 mM glucose + 10% FBS, 5.12 µM
[21] = RPMI 5 mM glucose + 10% FBS, 15.4 µM
[22] = RPMI 5 mM glucose + 10% FBS, 46.1 µM
[23] = RPMI 5 mM glucose + 10% dialyzed FBS, 0.000781 µM
[24] = RPMI 5 mM glucose + 10% dialyzed FBS, 0.00234 µM
[25] = RPMI 5 mM glucose + 10% dialyzed FBS, 0.00702 µM
[26] = RPMI 5 mM glucose + 10% dialyzed FBS, 0.0211 µM
[27] = RPMI 5 mM glucose + 10% dialyzed FBS, 0.0632 µM
[28] = RPMI 5 mM glucose + 10% dialyzed FBS, 0.19 µM
[29] = RPMI 5 mM glucose + 10% dialyzed FBS, 0.569 µM
[30] = RPMI 5 mM glucose + 10% dialyzed FBS, 1.71 µM
[31] = RPMI 5 mM glucose + 10% dialyzed FBS, 5.12 µM
[32] = RPMI 5 mM glucose + 10% dialyzed FBS, 15.4 µM
[33] = RPMI 5 mM glucose + 10% dialyzed FBS, 46.1 µM

Compound	cell viability [1] [%]	cell viability [2] [%]	cell viability [3] [%]	cell viability [4] [%]	cell viability [5] [%]	cell viability [6] [%]	cell viability [7] [%]	cell viability [8] [%]	cell viability [9] [%]	cell viability [10] [%]	cell viability [11] [%]	cell viability [12] [%]	cell viability [13] [%]	cell viability [14] [%]	cell viability [15] [%]	cell viability [16] [%]	cell viability [17] [%]	cell viability [18] [%]	cell viability [19] [%]	cell viability [20] [%]	cell viability [21] [%]	cell viability [22] [%]	cell viability [23] [%]	cell viability [24] [%]	cell viability [25] [%]	cell viability [26] [%]	cell viability [27] [%]	cell viability [28] [%]	cell viability [29] [%]	cell viability [30] [%]	cell viability [31] [%]	cell viability [32] [%]	cell viability [33] [%]
CC(C)[C@@H](N(CCCN)C(=O)C1=CC=C(C)C=C1)C/2=N/C3=CC(=CC=C3C(=O)N2CC4=CC=CC=C4)Cl	97.6	12	10.4	8.9	8.1	8.2	5.86	7.66	5.88	7.47	8.59	96.2	12.6	10.8	11.7	9.51	12	8.85	8.68	7.23	7.78	7.67	88.8	48.5	18.6	14.5	12.8	13.4	11.1	14.6	11.3	11.3	10.9
CC(=O)O[C@H]1C(=O)[C@]2(C)[C@@H](O)C[C@H]3OC[C@@]3(OC(C)=O)C2[C@H](OC(=O)C4=CC=CC=C4)[C@]5(O)C[C@H](OC(=O)[C@H](O)[C@@H](NC(=O)C6=CC=CC=C6)C7=CC=CC=C7)\C(=C1/C5(C)C)C (stereo partly specified)	93.3	42.1	35.2	27.6	31.9	27.8	25.7	27.1	25	19.1	15.3	88.3	48	34.3	24	26.1	24.8	27.8	23	26	19.3	14.3	95.8	58.3	41.4	31.5	37.7	39.7	35.9	38.8	37.7	31.9	25.9
CC1(C)Cc2c(-c3ccccc3)c(-c3ccc(Cl)cc3)c(CC(=O)O)n2C1	120	118	117	122	118	110	107	112	105	103	95.6	115	112	118	118	110	107	111	110	97.8	99.6	83.5	106	108	115	102	107	102	106	104	103	98.1	86
Oc1ccc2c3c1O[C@H]1c4[nH]c5c(c4C[C@@]4(O)[C@@H](C2)N(CC2CC2)CC[C@]314)C[C@@]1(O)[C@H]2Cc3ccc(O)c4c3[C@@]1(CCN2CC1CC1)[C@H]5O4	100	111	113	117	120	118	130	121	120	119	121	114	123	118	122	122	124	115	126	127	137	132	97.8	110	113	112	120	123	117	122	119	129	134
COC1CCC(CC1)N(C(=O)C2CCC(C)CC2)C3=C(SC(=C3)\C4=C\CCCC4)C(O)=O (stereo unspecified)	118	118	116	111	108	113	111	104	95.3	83.5	60	109	112	109	108	92.8	106	105	98.2	94.9	88.7	65.6	103	105	111	110	101	102	105	97.6	98.9	77.8	63.9
CC(C)(C)c1cc(NC(=O)Nc2ccc(-c3cn4c(n3)sc3cc(OCCN5CCOCC5)ccc34)cc2)no1	88.7	99.1	97.4	108	95.3	99.4	104	101	94.4	101	91	83.8	89.9	88.1	89.2	86	88.9	86.4	82.5	82.6	80.3	85.6	93.4	91.6	93.1	88.9	96.6	92.1	101	92.4	87.7	93.8	88.5
C[C@]12CC[C@@H]3c4ccc(OC(=O)N(CCCl)CCCl)cc4CC[C@H]3[C@@H]1CC[C@@H]2OP(=O)([O-])[O-].[Na+].[Na+]	118	115	113	94.4	121	117	105	111	113	110	26.6	115	118	117	89	5.78	123	118	117	106	98.7	119	107	116	117	82.8	117	105	106	111	96	104	88.1
